Like-named read-outs stand apart in the source and are kept apart here.
What was measured:
[1] = test system: HBs protein (S-HBs, M-HBs, and L-HBs) mRNA; assay: Knockdown of HBs protein mRNA expression levels in HepG2.2.15 cells (RT-qPCR relative to GAPDH mRNA); assay type: cell-based, hepatitis B virus; details: for IC50: Hepatitis B virus, read-out: Estimated IC50 values (knockdown of HBs protein mRNA expression levels); for knockdown effects on HBs protein mRNA expression levels: day 6 post-first exposure (data not shown); for knockdown HBs protein mRNA expression levels (in words): library screen, 50 µM, day 4 post-first exposure, HepG2.2.15 cells
Protocol: HepG2.2.15 cells (seeded at a density of 4 x 10^4 cells per well in 96-well plates) were cultured at 37 °C in humidified air with 5 % CO2. Once cells had reached confluence, initial screening of ginsenoside library compounds was performed with each compound added individually to culture media at a final concentration of 50 µM. Cells were then further incubated at 37 °C under 5 % CO2. At day 4 post-first exposure, cells were then collected to determine the percentage knockdowns of HBs protein mRNA expression levels relative to GAPDH mRNA levels (as described below).
Thereafter, more extensive studies were performed with HepG2.2.15 cells as follows. After cells were grown to confluence, as above, culture media were replaced with media containing one of the selected ginsenosides as appropriate, or else with LMV or ginsenoside/LMV combinations at the indicated concentrations. Cells were then further incubated at 37 °C under 5 % CO2. At the indicated times (at day 2, 4, or 6 post-first exposure; or at just day 5 post-first exposure), cell and culture media samples respectively were collected for subsequent detection of HBs protein mRNA expression levels or secreted HBV DNA and HBsAg levels (as described below).
RNA extraction from cells was performed using the QIAamp® Viral RNA Mini kit (Qiagen, Germany), according to manufacturer's instructions. RNA integrity was evaluated by electrophoresis on 1% agarose gels, and quantified using a ND1000 spectrophotometer (NanoDrop Technologies, Germany). Following this, extracted RNA (1 µg) was used to synthesize cDNA using a SensiFAST™ cDNA Synthesis Kit (Meridian Bioscience Inc, Cincinnati, OH, USA) according to manufacturer's instructions. RT-qPCR reactions were then performed with qPCR 2xSYBR master mix (Top-Bio, Czech Republic) on a LightCycler® real-time PCR system (Roche, Switzerland), using the indicated primers specific for amplification of HBs protein (S-HBs, M-HBs, and L-HBs) and GAPDH control mRNAs (Table 1). PCR amplification was performed on multiple RT-qPCR reaction mixtures (each 20 µl) located in individual wells of a 96-well optical-grade PCR plate, sealed with optical sealing tape (Bio-Rad Laboratories, Hercules, CA, USA). Each RT-qPCR reaction mixture comprised synthesized cDNA (2 µl) (diluted 1:1), appropriate primers (each 0.4 µl, […]), 2xSYBR green PCR master mix (10 µl) and ddH2O (7.2 µl). PCR amplification involved one cycle at 94 °C (5 min), followed by 40 cycles of denaturation at 94 °C (20 s), then annealing and extension at 57 °C for 20 s, plus 72 °C for 30 s. Finally, melting curve analyses were performed by slowly heating the PCR reaction mixtures from 65 to 95 °C, in increments of 0.5 °C every 5 s, with simultaneous measurements of the SYBR green signal intensities. Percentage knockdowns of HBs protein mRNA expression levels were determined relative to GAPDH mRNA levels using calculated 2^-ΔΔct values [Livak, K.J; Schmittgen, T.D. Analysis of relative gene expression data using real-time quantitative PCR and the 2(-Delta Delta C(T)) Method. Methods 2001, 25, 402-8]. Three biological replicates were performed for each data point where fold change (FC) ≥ 2 is considered statistically significant. Table 1. Primers for RT-qPCR detection of specific mRNAs

HepG2.2.15 cells = assay: Cytotoxicity assay (CCK-8 cell viability); assay type: cell-based, human; details: 3.12-100 µM; for HepG2.2.15 cytotoxicity: day 2 and 4 post-first exposure; for cell viabilities: day 6 post-first exposure, unrelated to ginsenoside doses, non-specific decline
Protocol: HepG2.2.15 cells (seeded at a density of 4 x 10^4 cells per well in 96-well plates) were cultured at 37 °C in humidified air with 5 % CO2. After cells reached 70-80 % confluence, initial screening of ginsenoside library compounds was performed with each compound added to cultured HepG2.2.15 cell at a final concentration of 50 µM. Cells were then further incubated at 37 °C under 5 % CO2. At day 4 post-first exposure of cells to each ginsenoside library compound, percentage cell viabilities were determined by CCK-8 (Dojindo Laboratories, Kumamoto, Japan) used according to manufacturer's instructions. Thereafter, cytotoxicity studies were performed with appropriate quantities of selected ginsenosides (Rg6, Rh4, or Rb3) added to cultured HepG2.2.15 cells at final concentrations of 100, 50, 25, 12.5, 6.25 or 3.12 µM. Cells were then incubated at 37 °C under 5 % CO2. At day 2, 4, and 6 post-first exposure of cells to the selected ginsenosides, percentage cell viabilities were determined by CCK-8 assay as above. Final cytotoxicity studies were performed with combinations of ginsenoside compounds (Rg6, Rh4 or Rb3) (at 80, 40, 20, 10, 5 or 2.5 µM) and LMV (at 0.08, 0.04, 0.02, 0.01, 0.005 or 0.0025 µM) respectively added to cultured HepG2.2.15 cells. Once more, cells were further incubated at 37 °C under 5 % CO2. At day 5 post-first exposure of cells to ginsenoside/LMV combinations, percentage cell viabilities were determined by CCK-8 assay once again.

SMILES	IC50 ([1]; HepG2.2.15, 48 h) [µM]	IC50 ([1]; HepG2.2.15, 96 h) [µM]	knockdown effects on HBs protein mRNA expression levels [1]	knockdown HBs protein mRNA expression levels (in words) [1]	HepG2.2.15 cytotoxicity (HepG2.2.15 cells)	cell viabilities (HepG2.2.15 cells)
CC(C)=CCC[C@](C)(O[C@@H]1O[C@H](CO[C@@H]2OC[C@@H](O)[C@H](O)[C@H]2O)[C@@H](O)[C@H](O)[C@H]1O)[C@H]1CC[C@]2(C)[C@@H]1[C@H](O)C[C@@H]1[C@@]3(C)CC[C@H](O[C@@H]4O[C@H](CO)[C@@H](O)[C@H](O)[C@H]4O[C@@H]4O[C@H](CO)[C@@H](O)[C@H](O)[C@H]4O)C(C)(C)[C@@H]3CC[C@]12C [Rb3]	4.1	3.2	wear off completely	especially effective	no significant HepG2.2.15 cytotoxicity	Slightly reduced cell viabilities
C=C(CCC=C(C)C)[C@H]1CC[C@]2(C)[C@@H]1[C@H](O)C[C@@H]1[C@@]3(C)CC[C@H](O)C(C)(C)[C@@H]3[C@@H](O[C@@H]3O[C@H](CO)[C@@H](O)[C@H](O)[C@H]3O[C@@H]3O[C@@H](C)[C@H](O)[C@@H](O)[C@H]3O)C[C@]12C [Rg6]	5.1	3.2	wear off completely	especially effective	no significant HepG2.2.15 cytotoxicity	Slightly reduced cell viabilities

— EP4444311B1, “GI[…] TREATMENT OF CHRONIC HEPATITIS B VIRUS INFECTIONS” (priority 2021, dated 2023)
